Measurements published in patent US7960614B2, “Plant transformation and selection” (Arborgen, LLC, priority 2003, dated 2011).

Key:
E. dunnii clone DUN00001 = experiment: Shoot regeneration from Agrobacterium-inoculated internodal explants, zeatin/NAA optimisation; type: cell-based, Eucalyptus dunnii
Description: This example teaches a method to optimize the levels of growth regulators for shoot regeneration from the recalcitrant commercial E. dunnii clone DUN00001 or other recalcitrant clones. Internodal explants are prepared as described in Example 1 and are inocultated with Agrobacterium as described in Example 5. Following co-cultivation, transformed shoot clumps are transferred to a shoot regeneration medium. […] To optimize the auxin and cytokinin concentrations in the shoot regeneration media, several combinations of hormones were evaluated as a function of the production of elongated shoots. […] During the initial screening, the zeatin levels were 10, 1, and 0.1 mg/l and the NAA levels were 0.01, 0.1 and 1 mg/l. […] The following data summarize the attempt to optimize the level of zeatin and NAA.

loblolly cell lines = experiment: asa2 (pWVC33) selection on Geneticin, 5MT or AMT, PCR check (Example 32); type: cell-based, Pinus taeda; details: Geneticin 15 mg/L with casein hydrolysate, 5MT or AMT 30 mg/L with AA4; for PCR confirmed positive (number of lines): of 12, 8, 22 lines PCR tested
Description: Two loblolly cell lines were prepared for transformation using the method of Example 28, and co-cultivated with Agrobacterium tumefaciens transformed with pWVC33 (FIG. 7) as described in Example 28. Following eradication of Agrobacterium, each cell line was equally divided onto 6 plates each of 5 different selection media containing either casein hydrolysate and Geneticin at 15 mg/L, or amino acid mixture AA4 and either 5-methyltryptophan (5MT) at 30 or 50 mg/L or […] (AMT) at 30 or 50 mg/L. The results are show in FIG. 12. Putatively transformed sublines grow on Geneticin-containing plates and on both selection treatments where 30 mg/L of the methylated tryptophan selective analog was incorporated.

[1] = test system: Loblolly pine (Pinus taeda) and hybrid pine (P. taeda×P. rigida) embryogenic cell lines; experiment: Selection of co-bombarded (als + nptII) pine embryogenic cells on Geneticin or Oust; type: cell-based
Text: This example describes the selection of genetically transformed pine, using a selectable marker encoding ALS on selection media containing a sulfonylurea herbicide, at a level sufficient for selection in model plants. In some experiments, including the one described in the following example, a vector that would express the als gene in the plant tissue was co-bombarded into the cells with a vector that would express the nptII gene in the plant tissue, and the co-bombarded cells were then divided into two groups and placed onto selection medium containing either a sulfonylurea herbicide or Geneticin, so that the frequency with which transformants are selected on Geneticin could be compared with the frequency of selection on herbicide.
Twenty identical replicates from the suspension cells of each of these three pine lines were prepared for gene transfer according to the method described in U.S. Pat. No. 6,518,485. Polyester membrane supports of a defined weight were sterilized by autoclaving and placing in separate sterile Buchner funnels, and approximately 1.5 ml of uniform pine embryogenic suspension at SCV 30 was pipetted onto each support such that the embryogenic tissue was evenly distributed over its surface. […]

[2] = test system: loblolly pine and loblolly x pitch pine hybrid embryogenic lines; experiment: Growth of pine embryogenic lines on Oust with and without casein hydrolysate (FIG. 9); type: cell-based, Pinus taeda; loblolly x pitch pine hybrid; details: Oust at 0, 10, 20, 40, and 80 nM, DCR2 with and without casein hydrolysate, twelve weeks
Description: Six embryogenic lines, two each from three different families (two genetically diverse loblolly pine families and a family of a loblolly x pitch pine hybrid), were evaluated. Uniform suspension cultures from each of the genetically different tissue culture lines were established as described in Example 26. Three identical replicates from the suspension cells of each of these six lines were plated as described in Example 26 on each of ten formulations of DCR2 medium, namely with and without casein hydrolysate, and containing the herbicide Oust at 0, 10, 20, 40, and 80 nM. The plates were sealed and incubated under the same conditions used for pre-experimental initiation, maintenance and selection steps in Example 26. Every three weeks the culture was transferred to fresh medium of the same formulation as previously provided, following weighing under sterile conditions of the tissue on the polyester support.

[3] = test system: Eucalyptus grandis x urophylla Clone IPB1; experiment: Geneticin selection of NPTII transformants, GUS staining of resistant calli; type: cell-based; details: about 10 weeks
Description: Before transforming, the explants were pre-cultured for 4 days on a medium having auxin enrichment (IAA at 2 mg/l instead of 0.1 mg/l NAA in standard regeneration medium) and acetosyringone (250 μM). As described in Example 6, the explants were infected with Agrobacterium, co-cultivated on the same medium for 3 days, and then transferred to a regeneration medium supplemented with 400 mg/l timentin for 4 days. Then, the explants were transferred to a selection medium containing geneticin instead of an herbicide selection agent.
The transformants were placed on geneticin selection medium containing geneticin (either 20 or 30 mg/l). Instead of the 3- or 4-week transfer cycles used with an herbicide selection medium, the explants were transferred bi-weekly to fresh geneticin medium. After about 10 weeks of growth on geneticin selection medium, samples of geneticin-resistant calli were collected and stained with x-gluc for GUS expression, as described in Example 7. The following data summarizes GUS expression in geneticin-selected transformants.

[4] = test system: E. camaldulensis clone C9; experiment: Geneticin selection of NPTII transformants, GUS staining of resistant shoot lines; type: cell-based, Eucalyptus camaldulensis; details: 8 weeks selection
Description: Similar to the methods disclosed in Example 16, E. camaldulensis clone C9 was transformed with GV2260 harboring p35SGUSINT. Following regeneration, the explants were transferred to a selection medium containing geneticin (30, 40, 50, or 60 mg/l geneticin). For geneticin at levels of 30 and 50 mg/l, additional sets of explants were pre-cultured for 1 day. After 8 weeks on selection medium, samples of geneticin-resistant shoot cultures in the early developmental stage were collected and stained with x-gluc for GUS expression.

E. grandis clone IP1 = experiment: as above; type: cell-based, Eucalyptus grandis; details: 8 weeks
Description: (Arabidopsis ActinII.:GUSINT, constitutive::NPTII). As described in Example 4, leaf explants from E. grandis clone IP1 were pre-cultured on a pre-culture medium comprising auxin and an Agrobacterium inducer. The explants were transformed with Agrobacterium and co-cultivated for 3 days on a pre-culture medium with auxin enrichment (IAA at 2 mg/l, instead of 0.1 mg/l NAA in standard regeneration medium) and acetosyringone (250 μM). Then the explants were transferred to Euc Regeneration medium supplemented with 400 mg/l timentin for 4 days. The explants were then transferred to selection medium containing geneticin (30 or 40 mg/l geneticin). After 8 weeks on selection medium, samples of geneticin-resistant shoot cultures in the early developmental stage were collected and stained with x-gluc for GUS expression.

C/C(=C\CNc1ncnc2[nH]cnc12)CO [Zeatin, zeatin]
shoot induction, comparison of levels in two experiments (E. dunnii clone DUN00001; Table 5 experiments): zeatin at 5 mg/l is better than 10 mg/l | shoot regeneration, initial screening of levels (E. dunnii clone DUN00001; zeatin 10, 1, and 0.1 mg/l with NAA 0.01, 0.1 and 1 mg/l): better results at 10 mg/l than at 1 mg/l or 0.1 mg/l

CC(c1c[nH]c2ccccc12)[C@H](N)C(=O)O (stereo partly drawn) [AMT30, β-methyltryptophan]
False positive Frequency (loblolly cell lines): 0.09 | PCR confirmed positive (number of lines) (loblolly cell lines): 20

COC(=O)c1ccccc1S(=O)(=O)NC(=O)Nc1nc(C)cc(C)n1 [Oust]
putative transgenic sublines that were false positives ([1]; selection on 50 nM Oust, medium with casein hydrolysate): Eighty | success as selective agent (stopping cell growth), FIG. 9 [2]: successful as a selective agent at multiple concentrations only in the absence of casein hydrolysate

CN[C@@H]1[C@@H](O)[C@@H](O[C@@H]2[C@@H](O)[C@H](O[C@H]3O[C@H]([C@@H](C)O)[C@@H](O)[C@H](O)[C@H]3N)[C@@H](N)C[C@H]2N)OC[C@]1(C)O [Geneticin]
No. GUS^+ Calli ([3]; Geneticin 20 mg/l, regular shaded light, 5 calli stained): 0 | No. GUS^+ Calli ([3]; Geneticin 30 mg/l, dark, 6 calli stained): 4 | No. GUS^+ Calli ([3]; Geneticin 30 mg/l, regular shaded light, 17 calli stained): 13 | % GUS^+ Shoots ([4]; Geneticin 30 mg/l, pre-culture 1 day): 37.9% | No. GUS^+ Shoot Lines ([4]; Geneticin 30 mg/l, pre-culture 1 day, 29 lines stained): 11 | % GUS^+ Shoots ([4]; Geneticin 30 mg/l, pre-culture 4 days): 12.8% | No. GUS^+ Shoot Lines ([4]; Geneticin 30 mg/l, pre-culture 4 days, 39 lines stained): 5 | % GUS^+ Shoots ([4]; Geneticin 40 mg/l, pre-culture 4 days): 11.8% | No. GUS^+ Shoot Lines ([4]; Geneticin 40 mg/l, pre-culture 4 days, 68 lines stained): 8 | % GUS^+ Shoots ([4]; Geneticin 50 mg/l, pre-culture 1 day): 50% | No. GUS^+ Shoot Lines ([4]; Geneticin 50 mg/l, pre-culture 1 day, 12 lines stained): 6 | % GUS^+ Shoots ([4]; Geneticin 50 mg/l, pre-culture 4 days): 19.4% | No. GUS^+ Shoot Lines ([4]; Geneticin 50 mg/l, pre-culture 4 days, 31 lines stained): 7 | % GUS^+ Shoots ([4]; Geneticin 60 mg/l, pre-culture 4 days): 50% | No. GUS^+ Shoot Lines ([4]; Geneticin 60 mg/l, pre-culture 4 days, 8 lines stained): 4 | % GUS^+ Shoots (E. grandis clone IP1; explant source rooted plants, Geneticin 30 mg/l): 0% | No. GUS^+ Shoot Lines (E. grandis clone IP1; explant source rooted plants, Geneticin 30 mg/l, 1 line stained): 0 | % GUS^+ Shoots (E. grandis clone IP1; explant source shoot cluster, Geneticin 30 mg/l): 50% | No. GUS^+ Shoot Lines (E. grandis clone IP1; explant source shoot cluster, Geneticin 30 mg/l, 16 lines stained): 8 | % GUS^+ Shoots (E. grandis clone IP1; explant source shoot cluster, Geneticin 40 mg/l): 57% | No. GUS^+ Shoot Lines (E. grandis clone IP1; explant source shoot cluster, Geneticin 40 mg/l, 7 lines stained): 4 | putative transgenic sublines in which stable transformation is verified ([1]; selection on Geneticin 15 mg/L, 12 sublines tested): 100% | False positive Frequency (loblolly cell lines): 0.08 | PCR confirmed positive (number of lines) (loblolly cell lines): 11
